Reference: patent publication US20100216255A1, “METHODS OF DETERMINING ACTIVE LEVELS OF DRUGS IN FLUID SAMPLES” (CLINICAL REFERENCE LABORATORY, priority 2001, published 2010)

What follows are molecules tested against Angiotensin Converting Enzyme (ACE) (Homo sapiens, UniProt P12821) (assay: ACE enzyme inhibition assay on samples from individuals reporting an ACE-inhibiting drug). Conditions: urine samples from individuals self-reporting the drug; count out of the LISTED number.
Chain of Angiotensin Converting Enzyme (ACE) (P12821 30-1232 limits assumed): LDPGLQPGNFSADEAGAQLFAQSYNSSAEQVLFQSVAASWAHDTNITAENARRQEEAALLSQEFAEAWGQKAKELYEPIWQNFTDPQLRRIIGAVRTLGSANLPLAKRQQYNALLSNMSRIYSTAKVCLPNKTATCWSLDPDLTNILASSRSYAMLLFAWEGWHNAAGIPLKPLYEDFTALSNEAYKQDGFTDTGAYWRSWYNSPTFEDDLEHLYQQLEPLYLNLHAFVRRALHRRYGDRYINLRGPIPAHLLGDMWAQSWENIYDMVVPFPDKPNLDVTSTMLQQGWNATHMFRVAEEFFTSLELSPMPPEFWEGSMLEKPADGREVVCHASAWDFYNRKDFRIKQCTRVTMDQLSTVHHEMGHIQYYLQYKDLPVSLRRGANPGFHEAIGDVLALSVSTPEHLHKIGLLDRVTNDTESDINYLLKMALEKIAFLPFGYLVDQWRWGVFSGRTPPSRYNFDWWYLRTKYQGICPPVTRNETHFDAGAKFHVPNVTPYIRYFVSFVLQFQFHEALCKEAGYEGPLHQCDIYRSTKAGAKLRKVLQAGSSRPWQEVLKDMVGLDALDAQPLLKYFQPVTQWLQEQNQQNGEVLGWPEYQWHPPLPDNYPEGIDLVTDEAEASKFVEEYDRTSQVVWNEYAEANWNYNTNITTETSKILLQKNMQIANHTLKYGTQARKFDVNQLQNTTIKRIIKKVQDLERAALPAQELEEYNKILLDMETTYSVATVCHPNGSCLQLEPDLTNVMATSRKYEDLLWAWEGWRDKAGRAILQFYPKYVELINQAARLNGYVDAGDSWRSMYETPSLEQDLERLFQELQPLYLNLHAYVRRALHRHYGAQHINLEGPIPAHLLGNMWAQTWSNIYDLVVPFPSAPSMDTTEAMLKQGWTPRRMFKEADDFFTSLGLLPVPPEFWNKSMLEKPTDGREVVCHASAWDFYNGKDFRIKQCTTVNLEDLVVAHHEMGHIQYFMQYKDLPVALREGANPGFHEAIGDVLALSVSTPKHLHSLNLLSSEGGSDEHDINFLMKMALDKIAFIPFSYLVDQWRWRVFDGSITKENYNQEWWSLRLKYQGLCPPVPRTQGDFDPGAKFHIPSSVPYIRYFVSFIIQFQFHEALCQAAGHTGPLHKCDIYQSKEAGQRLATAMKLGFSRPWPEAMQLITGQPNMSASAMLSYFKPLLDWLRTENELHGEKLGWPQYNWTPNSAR
Protocol: The bottle was then inverted a few times and then put on a shaker (Clay Adams CA6000 Centrifuge Becton Dickinson Microbiology System Sparks, Md.) at speed setting 2 for ten minutes. […] The pH was adjusted to 8.2 with 6 N hydrochloric acid.
Using the above-described reagents, a Hamilton MicroLab AT pipetting station was used to transfer 100 μl of the ACE serum in Tris buffer to each well of a microtiter plate. Next, 25 μl of the cut-off level calibrator, controls and unknown were added to their corresponding well locations with the Hamilton MicroLab AT, as shown in Table 1.
Five different patient samples were then added to five other wells. The microtiter plate was shaker on Titer Plate Shaker (Lab Line Instruments, Inc. Melrose, Ill.) at a setting of 2 for at least five minutes before pipetting 100 μl of the substrate FAPGG into each well. Next, solution was mixed by shaking the microtiter plate on the shaker at a speed setting of 2 for one minute. The microtiter plate was placed in the Spectra Mac Plus (Molecular Devices, Sunnyvale, Calif.) plate reader and the optical density of each sample at 340 nanoMeter was determined. The microtiter plate was then incubated at 37° C. for two hours. The optical density was again determined on the plate reader. This two-hour reading of optical density was then subtracted from the initial reading of optical density and termed the “delta OD 340.”
Fluid samples were obtained from individuals reporting that they were currently taking an ACE-inhibiting drug. […] The medications reported by the patients included eight different medications of the ACE-inhibiting drug family. Each individual reported taking only one specific ACE-inhibiting drug. Thus, this example tests the ability of the assay to identify individuals on ACE-inhibiting drugs without prior knowledge of the specific drug being taken.
With `CCOC(=O)[C@H](CCc1ccccc1)N[C@H]1CCc2ccccc2N(CC(=O)O)C1=O` [BENAZEPRIL, benazepril] the “DETECTED (samples testing positive for ACE-inhibiting drugs)” value was 14. In the case of `CCOC(=O)[C@H](CCc1ccccc1)N[C@@H](C)C(=O)N1CCC[C@H]1C(=O)O` [ENALAPRIL, enalapril], the “DETECTED (samples testing positive for ACE-inhibiting drugs)” value is reported as 5. For `NCCCC[C@H](N[C@@H](CCc1ccccc1)C(=O)O)C(=O)N1CCC[C@H]1C(=O)O` [LISINOPRIL, lisinopril], the “DETECTED (samples testing positive for ACE-inhibiting drugs)” value was 22. For `CCOC(=O)[C@H](CCc1ccccc1)N[C@@H](C)C(=O)N1Cc2cc(OC)c(OC)cc2C[C@H]1C(=O)O` [MOEXIPRIL, moexipril], the “DETECTED (samples testing positive for ACE-inhibiting drugs)” value was 3. `CCOC(=O)[C@H](CCc1ccccc1)N[C@@H](C)C(=O)N1Cc2ccccc2C[C@H]1C(=O)O` [QUINAPRIL, quinapril] was tested, and the “DETECTED (samples testing positive for ACE-inhibiting drugs)” value was 15. With `CCOC(=O)[C@H](CCc1ccccc1)N[C@@H](C)C(=O)N1[C@H](C(=O)O)C[C@@H]2CCC[C@@H]21` [RAMIPRIL, ramipril] the “DETECTED (samples testing positive for ACE-inhibiting drugs)” value was 2.

What follows are molecules tested against T1, Beta-1-adrenergic receptor (Homo sapiens, UniProt P08588) (assay: Cell receptor assay, competition with radiolabeled 125-iodocyanopindolol). Conditions: cut-off control, 20 ug/ml Atenolol in drug negative urine, diluted 1 to 10 before assay; 2 h at room temperature; counts inversely related to unlabeled ligand.
T1 construct: purchased Sigma Chemical RBIB-143
T1 sequence (P08588 whole entry, species assumed): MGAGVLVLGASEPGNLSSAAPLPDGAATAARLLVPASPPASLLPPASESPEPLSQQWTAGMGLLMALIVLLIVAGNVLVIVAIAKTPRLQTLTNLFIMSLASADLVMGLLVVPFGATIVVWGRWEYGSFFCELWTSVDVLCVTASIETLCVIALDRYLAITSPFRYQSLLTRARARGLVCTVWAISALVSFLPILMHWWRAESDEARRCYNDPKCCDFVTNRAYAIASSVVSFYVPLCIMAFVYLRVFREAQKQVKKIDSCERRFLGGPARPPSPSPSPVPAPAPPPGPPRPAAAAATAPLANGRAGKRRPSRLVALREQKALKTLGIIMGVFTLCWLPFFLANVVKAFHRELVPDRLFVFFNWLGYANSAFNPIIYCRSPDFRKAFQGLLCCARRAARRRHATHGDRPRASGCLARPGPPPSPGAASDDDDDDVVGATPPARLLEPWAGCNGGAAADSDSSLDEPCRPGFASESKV
Format: binding
Protocol: This example provides a cell receptor assay for B1 adrenergic receptors and tests the accuracy of the assay. Patient urine that may or may not contain target ligand and a radiolabeled competitive ligand are added to a test tube containing a limited concentration of cell membrane containing beta-1-adrenergic receptors. The unlabeled ligand in the patient's urine competes with the labeled ligand for the receptor sites during an incubation period. Following incubation the tubes are centrifuged to precipitate the cell membrane-receptors. The solution containing unbound ligand is decanted and the radioactivity retained in the tubes is detected in a gamma counter. The amount of radioactivity bound is indirectly proportional to the concentration of unlabeled ligand present in the patient's urine. […] Adjust the pH to 7.4 with concentrated hydrochloric acid and fill to volume with deionized water. […] Thaw the stock solution of membrane and dilute to 30 milliliter with Tris working buffer. […] The working solution of radiolabel is prepared by diluting the stock 1 to 30 with Tris working buffer. […] Atenolol, propranolol and metoprolol were diluted with HPLC grade ethyl alcohol (Aldrich Chemical Company Milwaukee, Wis.) to produce a 1.0 mg/ml stock solution for each drug. […] The total radioactivity was detected on Packard Cobra II Auto Gamma counter (Packard Instrument Company Downers Grove, Ill.).
`CC(C)NCC(O)COc1ccc(CC(N)=O)cc1` (stereo not shown) [Atenolol] was tested, and the “Counts per Minute” value was 5117.
